The source of these data is patent publication US20060009433A1, “Neuroprotective spirostenol pharmaceutical compositions” (priority 2003, published 2006).

The subject of data set [1] is Mouse embryonic teratocarcinoma P19 cells. Put plainly: Neurites-like sprouting in P19 cells. Format: cell-based. The settings on record: 90 μM, 2 days, then 5 days wash-out. As for the experimental part:
(§1) Mouse embryonic teratocarcinoma P19 cells were cultured at 37° C. in […] in Alpha Minimum Essential medium with ribonucleosides and deoxyribonucleosides containing bovine calf serum (7.5%) and fetal bovine serum (2.5%) on 13 mm diameter glass cover-slip. PC12 cells (rat pheochromocytoma neurons) were cultured at 37° C. and 5% CO2 in RPMI 1640 medium devoid of glutamine and supplemented with 10% fetal bovine serum and 5% horse serum on 13 mm diameter glass cover-slip. When cells reached 70% confluence, the medium was replaced fresh medium containing 90 μM SP-224. P19 and PC12 cells were then incubated for 2 days before SP224 was washed out and replaced by standard medium. The culture medium was changed every 2 days for 5 days or every 2 days for 30 days before cells were fixed for immunocytochemistry. The NT2 cells were treated for 5 days and washed-out for 10 days.
(§2) The above-referenced cell lines were used because they have been extensively used as a model of neuronal differentiation (Houldsworth et al., 2002; Chou et al., 2003; Das et al., 2004). To induce the sprouting, cells were plated in 6-well plates and treated for 2 days (P19) or 5 days (PC12 and NT2) with 90 μM SP-224 before being washed with fresh medium and cultured for 5 (P19) or 10 (PC12 and NT2) more days. […] Meantime, we observed a growth arrest of the treated-cells. […]

Data set [2] concerns neural stem cells in the sub-ventricular zone (SVZ) of the rat brain. Put plainly: In vivo i.c.v. infusion, neural stem cells of the SVZ (BrdU, DCX immunohistochemistry). As for the experimental part: Male Long-Evans rats weighing 300-325 g (3-4 months old) were housed following a natural day-night cycle with food and water ad libitum. Prior to surgery, rats were anesthetized with equithesin (3 ml/kg, i.p.) and then placed on a stereotaxic frame. Using an electrode micromanipulator, the outlet of an osmotic micropump was implanted into the left cerebral ventricle following the coordinates D=3.4 mm, L=1.4 mm and AP=0.92 mm caudal to bregma. The tank of the osmotic pump was implanted in a subcutaneous pocket in the midscapular area of the back of the rat. After surgery, rats were placed on a heating blanket for recovery. During the whole procedure, the body temperature was monitored and kept stable at 37° C. SP-224 at 375 μM solubilized in polypropylene glycol/glycerol/distilled water (50/25/25) was perfused by i.c.v. route at 5 μl per hour for 2 weeks. Rats were sacrificed 3 weeks after the end of the brain infusion by intracardiac perfusion, first with a washing solution (NaCl 8 g/l, dextrose 4 g/l, sucrose 8 g/l, calcium chloride 0.23 g/l, sodium cacodylate anhydrous 0.25 g/l, in deionized water) and then with fixative cacodylate buffer (sucrose 40 g/l, paraformaldehyde 40 g/l, sodium cacodylate anhydrous 10.72 g/l, in deionized water). Brains were stored in fixative cacodylate buffer for an additional week before being embedded in paraffin. To study the neural stem cells proliferation rats were daily injected with a BrdU solution at 100 mg/kg. The first injection took place the day following the surgery and the last injection was performed the day previous to the euthanasia.
Brains were embedded in a paraffin block […] and cut into 20-μm thick slices.
This experiment was conducted to validate the results obtained in vitro and to assess the ability of the SP-224 to induce a neuronal differentiation of the neural stem cells present in the sub-ventricular zone (SVZ) of the rat brain. The SP-224 was administered in a solution at 375 μM by intra-cerebroventricular route for 2 weeks, corresponding to a total quantity of […] of SP-224 per rat. […]

A further data set relates to NT2 human neuronal cells. Put plainly: Neurites-like sprouting in NT2 cells. The class given is cell-based. The settings on record: 90 μM, 5 days, then 10 days wash-out. The procedure:
as §1, §2

Data set [3] relates to PC12 rat pheochromocytoma cells. In words: Neurites-like sprouting in PC12 cells. Format: cell-based. The settings on record: 90 μM, then wash-out. As for the experimental part: as §1, §2
The next data set deals with P19 cells. Put plainly: Neuronal and glial markers in differentiated P19 cells (immunocytochemistry). The class given is cell-based, mouse. As for the experimental part: as §1
P19 cells were fixed with methanol at −20° C. for 15 minutes before being permeabilized for 30 minutes at room temperature with 1×PBS pH=7.4 containing 0.1% Triton 100×. Cell were incubated for 24 hours at 4° C. with antibodies raised against GAP43 (1/1000), DCX (1/3000), βIII Tubulin (1/500), synaptophysin (1/200), MAP2 (1/500), ChAT (1/2000), GFAP (1/1000) or CNPase (1/250). […] Cells nucleus was counterstained using DAPI or ethidium bromide.
The ability of SP-224 to induce the neuronal differentiation of the P19 cells was assessed as follows. P19 cells were treated for 2 days followed by a 5 days wash out period (FIG. 26). The neuronal markers expression was also studied after 28 days (FIG. 27) in order to in order to verify whether the expression observed at 5 days was temporary or permanent. No neuronal marker was observed on the control except for the synaptophysin for which the staining was, however, very weak (FIG. 26C). […] After 28 days of wash out the neuronal differentiation is even more important.

The mark [4] stands for this setting: 375 μM i.c.v., 5 μl per hour for 2 weeks, sacrifice 3 weeks later.
[5] abbreviates: 2 days treatment, 28-30 days wash out.

Entries after “also recorded” stand apart in the source; their conditions may differ.

In the case of `CC1CCC2(NC1)OC1CC3C4CC=C5CC(O)CCC5(C)C4CCC3(C)C1C2C` [SP224, (20α)-25ζ-methyl-(22R,26)-azacyclofurost-5-en-3ζ-ol], the “sprouting of P19 cells” value in data set [1] was “significant sprouting”. Moreover, the “toxic effect on the brain tissue” value in data set [2] (375 μM i.c.v. for 2 weeks) is “without any apparent toxic effect on the brain tissue”. Besides, in data set [2] (setting [4]), the “BrdU immunostaining, neural stem cell self-renewal/proliferation in the SVZ” value is “able to induce a self-renewal of the neural stem cells in the SVZ; also recorded: dramatic increase of the BrdU” and the “expression of early neuronal marker DCX in the SVZ cells” value is “induced the expression of the early neuronal marker DCX”. Besides, the “sprouting of NT2 cells” value with NT2 human neuronal cells is on record as “significant sprouting”. Besides, the “sprouting of PC12 cells” value in data set [3] was “significant sprouting”. Further, in the data set with P19 cells (90 μM 2 days, 5 days SP-224 free medium), the “astrocyte marker GFAP / differentiation into astrocytes” value was “no positive GFAP signal was detected; also recorded: did not trigger the differentiation of the P19 cells into astrocytes”. In the data set with P19 cells (90 μM 2 days, 5 days wash out), the “expression of ChAT” value is listed as “strong expression”, the “expression of MAP2” value was “strong expression”, the “expression of migrating neuroblasts marker DCX” value is given as “strongly expressed” and the expression of synaptophysin entry was “strong expression”. For the same compound, the “expression of βIII tubulin” value with P19 cells (90 μM 2 days, 5 days wash out) is listed as “strong expression”. Besides, in the data set with P19 cells (setting [5]), the “network of axons and dendrites (βIII tubulin staining)” value is listed as “dramatically extended”; the synaptophysin labeling result is given as “established synaptic connections”.
